Measured values published in US20060189519A1, “Anti-angiogenic fragments fo pigment epithelium-derived factor (pedf)” (priority 2002, published 2006).

Tests used:
[1] = system: bFGF-induced corneal angiogenesis; assay: Mouse corneal neovascularization assay (bFGF pellet); format: in vivo; conditions: for Positive comeas/total: bFGF 50 ng/pellet, day 5 after implantation; for effect on mouse corneal neovascularization in vivo: bFGF pellet, peptides at 10 and 100 μM
Method: Angiogenesis was induced in the mouse cornea by implanting slow release pellets containing bFGF (50 ng/pellet). Peptides at 10 and 100 μM were added where indicated. Angiogenesis was observed on day 5 after implantation and a vigorous ingrowth of the blood vessels reaching the pellet was scored as a positive response. The peptide abbreviations are as above; PBS is phosphate buffer solution.

[2] = system: Microvascular endothelial cells (HMVECs); assay: VEGF-induced endothelial cell chemotaxis/migration assay (Boyden chamber); format: cell-based, human; conditions: at 100 nM (44-mer: 100 nM or higher)
Method: FIG. 3. In vitro anti-angiogenic activity by […] and 44-mer PEDF peptides. Microvascular endothelial cells (HMVECs) chemotaxis up the gradient of pro-angiogenic VEGF was examined in the presence of the 44-mer or 34-mer. FIG. 3A Recombinant PEDF (rPEDF, BH) (10 nM), 34-mer (1 μM) and 44-mer (1 μM) were tested alone (empty bars), or in the presence of VEGF (hatched bars). Anti-PEDF neutralizing antibodies were added where shown (filled bars). FIG. 3B 34-mer (●) and 44-mer (♦) were tested with VEGF (100 pg/ml) at increasing concentrations. ED50 was determined using regression curves.
Two large peptides from PEDF, a “34-mer” (amino acids 24-57 of SEQ ID NO:1) and a “44-mer” (residues 58-101 of SEQ ID NO:1), were tested for their ability to block angiogenesis. […] (Alberdi et al., 1999) In the anti-angiogenesis assays, only the 34-mer inhibited VEGF-induced angiogenesis in vitro. Anti-angiogenic activity of the 34-mer peptide was blocked with neutralizing antibodies effective against the whole molecule.
HUVEC migration assay are performed as previously described (Good et al., PNAS, 1990). […] Then, the stained membranes are dried, mounted, and the cells migrated to the top part of membrane counted in 10 high-powered (400×) fields. […]

HUVECs = assay: Endothelial cell apoptosis assay (TUNEL, ApopTag); format: cell-based, human; conditions: for induction of endothelial cell apoptosis: in vitro, low serum (0.2%)
Method: FIG. 5. Endothelial cell apoptosis induced by TGA and ERT-L PEDF peptides. 90% confluent HUVECs were treated with increasing concentrations of TGA (FIG. 5A) or ERT-L (FIG. 5B). Apoptotic cells were detected with ApopTag assay kit (Intergen) and percent of TUNEL positive cells calculated.
Apoptosis by PEDF and by the 34-mer were mediated by the same signaling events including activation of JNK-1. Apoptosis by both PEDF and by its 34-mer fragment were abolished in the presence of JNK-1 specific inhibitor SP600125 (BioMol). […] The 44-mer had no activity.
Cells were plated on gelatinized glass cover slips in 24-well tissue culture plates at 5×10^4 cells/well, treated with indicated compounds in low serum (0.2%), fixed in 1% buffered paraformaldehyde, stained using the ApopTag in situ cell death detection kit according to the manufacturer's instructions (Serologicals corporation) and counterstained with propidium iodide. The percentage of terminal deoxynucleotidyl transferase-mediated dUTP nick end labeling (TUNEL)-positive cells was calculated as the number of TUNEL-positive cells (counted in 2-6 randomly selected fields from two different chambers) divided by the total number of cells. 600-1200 cells were scored for each treatment.
Human umbilical vein endothelial cells (HUVEC, NCI) were grown to 90% confluence and treated with peptides overnight in low (0.2%) serum. Apoptotic cells were detected using TUNEL assay kit (InterGene) and percent apoptotic cells were calculated (FIG. 5).

[3] = system: Y-79 retinoblastoma cells; conditions: previously shown (Alberdi et al., 1999); cited from earlier work
[4] = system: endothelial cells (HUVEC); assay: Endothelial cell migration up the gradient of pro-angiogenic bFGF; format: cell-based, human
Method: HUVEC migration assay are performed as previously described (Good et al., PNAS, 1990). The cells are starved overnight in MCDB131 medium supplemented with 0.1% bovine serum albumin (BSA, Sigma) and placed at 1.5 10^6 cells/ml in the bottom part of a 48-well modified Boyden chambers (Neuroprob Corp.), separated from the top part by gelatinized micro porous membrane (8 μm pore size, Nucleopor/Whatman). The inverted chambers are incubated for 1.5 h for the cells to attach. The chamber are then re-inverted, test substances added to the top part of the top well and incubated for additional 3h30 to allow migration. The chamber are disassembled, the membranes fixed, the cells visualized using Diff-Quick staining kit (Fisher). Then, the stained membranes are dried, mounted, and the cells migrated to the top part of membrane counted in 10 high-powered (400×) fields. MCDB131 containing 0.1% BSA, is used as a negative control and 10 ng/ml bFGF as a positive control. Each substance is tested in quadruplicate to allow statistical evaluation of the data within a single experiment. Each experiment is repeated 3 times to ensure the reproducibility.
The peptides were tested in vitro for their ability to block endothelial cell migration up the gradient of pro-angiogenic bFGF.

Substance | Positive comeas/total ([1]; peptide 10 μM) | Positive comeas/total ([1]; peptide 100 μM) | inhibition of VEGF-induced endothelial cell chemotaxis [2] | induction of endothelial cell apoptosis (HUVECs) | binding to and differentiation of Y-79 retinoblastoma cells [3] | ability to block endothelial cell migration up the gradient of bFGF [4] | effect on mouse corneal neovascularization in vivo [1] | dose at which maximal apoptosis effect is reached (HUVECs; cultured endothelial cells) [nM]
acetyl-ERTESIIHRAL-amide (Ac-ERTESIIHRAL-NH2) [ERT-S, PEDF residues 78-88] | 5/6 | 4/6 |  |  |  |  |  | 
44-mer: PEDF peptide, residues 58-101 of SEQ ID NO:1, previously shown to have neurotrophic activity (VLLSPLSVATALSALSLGAEQRTESIIHRALYYDLISSPDIHGT; listed as Homo sapiens) [reference compound] |  |  | no inhibitory activity | no activity | bind to and induce differentiation |  |  | 
acetyl-TGALVEEEDPF-amide (Ac-TGALVEEEDPF-NH2) [PEDF residues 16-26] | 4/6 | 2/6 |  | induced apoptosis |  | showed anti-angiogenic activity | blocked mouse corneal neovascularization | 
acetyl-SSPDIHGTYKE-amide (Ac-SSPDIHGTYKE-NH2) [PEDF residues 94-104] | 6/6 | 4/4 |  |  |  |  |  | 
DPFFKVPVNKLAAAVSNFGYDLYRVRSSMSPTTN [34-mer] |  |  | inhibited |  |  |  |  | 100
acetyl-ERTESIIHRALYYDLIS-amide (Ac-ERTESIIHRALYYDLIS-NH2) [ERT-L, PEDF residues 78-94] | 2/6 | 1/5 |  | induced apoptosis |  | showed anti-angiogenic activity | blocked mouse corneal neovascularization | 
acetyl-LYYDLISSPDIHGTYKE-amide (Ac-LYYDLISSPDIHGTYKE-NH2) [PEDF residues 88-104] | 5/6 | 5/5 |  |  |  |  |  | 
